Results: patent US20220298483A1, “METHOD AND COMPOSITION FOR CHONDROGENESIS” (National Health Research Institutes, priority 2021, published 2022)

B1: TGFβ3: pleomorphic growth factor commonly used to induce MSC chondrogenesis (R&D Systems) (protein, UniProt P10600 301-412, looked up)
Transforming growth factor …: ALDTNYCFRNLEENCCVRPLYIDFRQDLGWKWVHEPKGYYANFCSGPCPYLRSADTTHSTVLGLYNTLNPEASASPCCVPQDLEPLTILYYVGRTPKVEQLSNMVVKSCKCS

How the values were obtained:
[1] = test system: β-catenin in micromass-cultured iPSC-MSCs; assay: Immunofluorescence quantification of β-catenin expression; format: cell-based, human; conditions: 1 day (FIG. 8)
Procedure: Confocal immunofluorescence microscopy and fluorescence quantification of β-catenin in micromass-cultured iPSC-MSCs with the indicated modulators in chondrogenic induction medium for 1 day. Nuclei are labeled by DAPI. Scale bar, 5 μm. ChBM, chondrogenic basal medium without TGFβ. XAV, Wnt/β-catenin antagonist XAV939. CHIR, Wnt/β-catenin agonist CHIR99021. Data are represented as mean±S.D. *, p<0.05, **, p<0.01, ***, p<0.001.
Immunofluorescent staining was performed as previously reported (Wang et al., 2013). Paraformaldehyde-fixed cell samples were permeabilized with 0.1% Triton X-100 and nonspecific binding was blocked by 5% bovine serum albumin Primary antibodies against alpha smooth muscle actin (αSMA) (Sigma-Aldrich), β-catenin (BD Biosciences, San Jose, Calif., USA) or N-cadherin (Abcam, Cambridge, UK) were stained with 1:100 dilution for 24 hours, followed by species specific secondary antibody incubation overnight. Fluorescent signals were acquired by confocal microscopy (Leica TCS SP5 II, Wetzlar, Germany) and analyzed by Image J (NIH, Maryland, USA).

[2] = test system: N-cadherin/β-catenin interactions in micromass cultured iPSC-MSCs; assay: Proximity ligation assay (PLA) for N-cadherin-β-catenin interaction; format: cell-based, human; conditions: ChBM plus modulator, 1 day (FIG. 5C, 5D)
Procedure: Micromass cultured iPSC-MSCs were used for PLA and performed according to the manufacturer's protocol (Sigma-Aldrich). Antibodies against N-cadherin (Abcam) and β-catenin (BD Biosciences) were used for recognition. After ligation and amplification, the PLA signals from each pair of probes in close proximity (<40 nm) were visualized by confocal microscope (Leica TCS SP5 II) and signal counts were analyzed by Image J.

[3] = test system: β-catenin in iPSC-MSC pellets; assay: Immunofluorescent staining and quantification of nuclear β-catenin; format: cell-based, human; conditions: ChBM plus modulator, 1 day, compared to ChBM or TGFβ3 (FIG. 4A, 4B)
Procedure: (§1) In vitro chondrogenic differentiation using 3D pellet culture was performed as described previously (Liu et al., 2011; Wang et al., 2018; Yen et al., 2013), 2×10^5 trypsinized were centrifuged 450×g for 10 minutes to form a pellet in expansion medium. After 16 hours, the medium was changed to chondrogenic basal medium (ChBM) consisting of low-glucose DMEM supplemented with 100 units/ml penicillin, 100 μg/ml streptomycin (all from Gibco-Thermo Fisher Scientific), 1% Insulin-transferrin-sodium selenite media supplement (Sigma-Aldrich, St Louis, Mo., USA), 2 mM L-glutamine (Gibco-Thermo Fisher Scientific), 10 μM L-Ascorbic acid 2-phosphate (Sigma-Aldrich), 100 nm dexamethasone (Sigma-Aldrich). Addition of TGFβ1 (10 ng/mL; R&D Systems, Minneapolis, Minn., USA), TGFβ3 (10 ng/mL; R&D Systems), XAV939 (XAV; 10 μM; Sigma-Aldrich) or CHIR99021 (CHIR; 10 μM; Sigma-Aldrich) to ChBM was performed as indicated. Cell pellets were harvested at the indicated day for analysis. […]
(§2) Immunofluorescent staining was performed as previously reported (Wang et al., 2013). […] Fluorescent signals were acquired by confocal microscopy (Leica TCS SP5 II, Wetzlar, Germany) and analyzed by Image J (NIH, Maryland, USA).

[4] = test system: human MSCs—including iPSC-MSCs, ESC-MSCs and BM-MSCs; assay: 3D pellet culture chondrogenesis in complete chondrogenic medium, Alcian Blue staining and GAG quantification; format: cell-based; conditions: ChM containing TGFβ3, 10 μM; for pellet condensation / pellet integrity: Day 20, all 3 sources of MSCs
Procedure: (§3) In vitro chondrogenic differentiation using 3D pellet culture was performed as described previously (Liu et al., 2011; Wang et al., 2018; Yen et al., 2013), 2×10^5 trypsinized were centrifuged 450×g for 10 minutes to form a pellet in expansion medium. After 16 hours, the medium was changed to chondrogenic basal medium (ChBM) consisting of low-glucose DMEM supplemented with 100 units/ml penicillin, 100 μg/ml streptomycin (all from Gibco-Thermo Fisher Scientific), 1% Insulin-transferrin-sodium selenite media supplement (Sigma-Aldrich, St Louis, Mo., USA), 2 mM L-glutamine (Gibco-Thermo Fisher Scientific), 10 μM L-Ascorbic acid 2-phosphate (Sigma-Aldrich), 100 nm dexamethasone (Sigma-Aldrich). Addition of TGFβ1 (10 ng/mL; R&D Systems, Minneapolis, Minn., USA), TGFβ3 (10 ng/mL; R&D Systems), XAV939 (XAV; 10 μM; Sigma-Aldrich) or CHIR99021 (CHIR; 10 μM; Sigma-Aldrich) to ChBM was performed as indicated. Cell pellets were harvested at the indicated day for analysis. Micromass culture-based chondrogenic differentiation was performed as previously reported, using 2×10^7 cells/ml of MSCs suspended in expansion medium and 20-μl drops spotted in the center of each well of a 24-well culture plate (Craft et al., 2015; Greco et al., 2011). After adhesion for 1.5 hour in a humidified incubator at 37° C. with 5% CO2, the medium was changed to ChBM with indicated regulators for chondrogenic induction.
Samples were washed with PBS and fixed with 4% paraformaldehyde, followed by pH 1.0 1% Alcian blue 8GX (Sigma-Aldrich) staining at room temperature overnight to detect sulfated proteoglycan matrix (Lev and Spicer, 1964). Quantification of Alcian blue staining extracted with 6M Guanidine-HCl was measured in 650 nm absorbance (Song et al., 2018). […]

[5] = test system: micromass-cultured iPSC-MSCs; assay: Micromass culture chondrogenic differentiation, Alcian Blue staining and quantification; format: cell-based, human; conditions: ChBM plus modulator; for micromass structural condensation and Alcian Blue intensity: Day 10, compared to ChBM and TGFβ3 (FIG. 3B)
Procedure: as §3
(§4) Samples were washed with PBS and fixed with 4% paraformaldehyde, followed by pH 1.0 1% Alcian blue 8GX (Sigma-Aldrich) staining at room temperature overnight to detect sulfated proteoglycan matrix (Lev and Spicer, 1964). Quantification of Alcian blue staining extracted with 6M Guanidine-HCl was measured in 650 nm absorbance (Song et al., 2018).

iPSC-MSC pellets = assay: Quantitative real-time PCR of chondrogenic, osteogenic and Wnt downstream genes; format: cell-based, human; conditions: for AXIN2 gene expression: 3 days (FIG. 4C); for COL2A1 gene expression / ACAN gene expression: no TGFβ unless added; for COL2A1 gene expression: Day 3 (FIG. 3C); for ACAN gene expression: Day 3 (FIG. 3D); for collagen 2A1 (COL2A1) gene expression: Day 3 (FIG. 1D); for aggrecan (ACAN) gene expression: Day 3 (FIG. 1E); for RUNX2 mRNA expression compared to ChBM: 10 ng/mL in ChBM, Day 3 (FIG. 2E)
Procedure: as §3
Total RNA was isolated using TRI® reagent (Sigma-Aldrich), and quantified using NanoDrop spectrophotometer (Nyxor Biotech, Paris, France) (Wang et al., 2013). Reverse transcription was performed using RevertAid H Minus reverse transcriptase (Thermo Fisher Scientific), and PCR was performed on ABI PRISM 7500 system (Applied Biosystem, Foster City, Calif., USA) with SYBR Fast qPCR kit (KAPA Biosystems, Boston, Mass., USA). mRNA expression level was calculated by using the ΔΔCt method, and glyceraldehyde 3-phosphate dehydrogenase (GAPDH) level were used as housekeeping control. The results are normalized to ChBM to represent effects of indicated modulators.

[6] = test system: pellet-cultured iPSC-MSCs; assay: 3D pellet culture chondrogenic differentiation of iPSC-MSCs, Alcian Blue staining and quantification; format: cell-based, human; conditions: for pellet condensation and Alcian Blue staining compared to ChBM: ChBM plus modulator (10 ng/mL TGFβ3, 10 μM CHIR or XAV), 20 days (FIG. 3A top); for quantification of GAG production: Day 10, compared to ChBM and to TGFβ3 (FIG. 3A right)
Procedure: as §3, §4

[7] = test system: Mouse BM-MSCs transplanted subcutaneously into wild-type C57BL/6J mice; assay: In vivo ectopic chondrogenesis, Alcian Blue staining of transplanted MSC pellets; conditions: local injection every 3 days, harvest Day 20 (FIG. 3F)
Procedure: Samples were washed with PBS and fixed with 4% paraformaldehyde, followed by pH 1.0 1% Alcian blue 8GX (Sigma-Aldrich) staining at room temperature overnight to detect sulfated proteoglycan matrix (Lev and Spicer, 1964). Quantification of Alcian blue staining extracted with 6M Guanidine-HCl was measured in 650 nm absorbance (Song et al., 2018). All animal work was performed according to protocols approved by the Institutional Animal Care and Use Committee. In vivo ectopic chondrogenesis was performed as previously reported with modifications (Zhao et al., 2014). Mouse BM-MSCs were cultured as 3D pellets in ChBM alone or with addition of TGFβ3, CHIR, or XAV for 3 days, then subcutaneously transplanted to dorsal skin of wild-type C57BL/6J mice, with local injections of modulators every 3 days till the pellet sample was harvested at Day 20. Collected samples were then frozen in optimal cutting temperature (OCT) compound and sliced to […] in thickness for histological staining.

[8] = test system: N-cadherin in iPSC-MSCs cultured as micromass; assay: Immunofluorescent staining of N-cadherin; format: cell-based, human; conditions: ChBM plus modulator, 24 hours, compared to all other conditions (FIG. 5A, 5B)
Procedure: as §1, §2

[9] = ChBM plus modulator, 3 days (FIG. 4D)

Molecule | N-cadherin/β-catenin interactions, PLA signals [2] | nuclear β-catenin levels [3] | pellet condensation / pellet integrity [4] | micromass structural condensation and Alcian Blue intensity [5] | AXIN2 gene expression (iPSC-MSC pellets; ChBM plus modulator) | RUNX2 gene expression (iPSC-MSC pellets; [9]) | COL2A1 gene expression (iPSC-MSC pellets; ChBM plus modulator) | ACAN gene expression (iPSC-MSC pellets; ChBM plus modulator) | collagen 2A1 (COL2A1) gene expression (iPSC-MSC pellets; in ChM) | aggrecan (ACAN) gene expression (iPSC-MSC pellets; in ChM) | RUNX2 gene expression (iPSC-MSC pellets; in ChM, Day 3 (FIG. 1F)) | pellet condensation and Alcian Blue staining compared to ChBM [6] | quantification of GAG production ([6]; ChBM plus modulator) | RUNX2 mRNA expression compared to ChBM (iPSC-MSC pellets) | other results
Cc1c[nH]c(-c2cnc(NCCNc3ccc(C#N)cn3)nc2-c2ccc(Cl)cc2Cl)n1 [CHIR, CHIR99021] | minimal PLA signal detected | dramatically increased | decreased pellet integrity | minimal evidence of any micromass structure or Alcian Blue staining | strongly increased | strongly increased | minimal expression | minimal expression | significant downregulation | significant downregulation | the opposite effect | did not undergo condensation but became disintegrated | minimal GAG production | – | β-catenin expression [1]: strongest expression of β-catenin; SOX9 gene expression (iPSC-MSC pellets; in ChM, Day 3 (FIG. 1C)): significant downregulation
C=C1[C@@H](C)[C@H]2[C@H](Cc3ccccc3)NC(=O)[C@]23[C@H](OC(C)=O)/C=C/[C@@](C)(O)C(=O)[C@@H](C)C/C=C/[C@H]3[C@@H]1O [CytoD, cytochalasin D] | – | – | – | – | – | – | – | – | – | – | – | – | – | – | pellet condensation / structure and chondrogenic differentiation ([6]; 0.25 μM CytoD, 10 μM XAV, Day 10 (FIG. 5F, 5G)): significantly disrupted the condensation process with the pellets completely disintegrated by Day 10
Oc1nc(-c2ccc(C(F)(F)F)cc2)nc2c1CSCC2 [XAV, XAV939] | significantly increase | lowest nuclear β-catenin levels | increased condensation of the pellets | better structural condensation and stronger Alcian Blue intensity | significantly decreased | significantly decreased | most significantly upregulated | most significantly upregulated | significant upregulation | significant upregulation | decreased expression | formed well-condensed spheres and strong Alcian Blue staining | significant increases | – | quantification of glycosaminoglycans (GAGs), Alcian Blue ([4]; 20 days, compared to ChM (FIG. 1A)): significant increase; quantitation of GAG production in micromass culture ([5]; Day 10 (FIG. 3B)): highest production of GAG; GAG production in in vivo differentiated samples ([7]; 10 μM): highest level of GAG production; GAG production in vivo compared to TGFβ3 agonism [7]: significantly increased; GAG production by Alcian Blue staining, XAV versus TGFβ3 ([6]; ChBM plus modulator, Day 10 (FIG. 3A bottom)): more rapidly induced; N-cadherin expression [8]: strongly and most significantly upregulated
TGFβ1: pleomorphic growth factor commonly used to induce MSC chondrogenesis (R&D Systems) | – | – | – | – | – | – | – | – | – | – | – | – | – | significantly upregulated | –
B1 | – | – | – | – | increased expression | increased expression | did not increase expression | did not increase expression | – | – | – | formed well-condensed spheres and strong Alcian Blue staining | – | significantly upregulated | –
